Results on 49 molecules are retold here after patent US8765944B2, “Compounds for the treatment of hepatitis C” (priority 2010, dated 2014).

The test system of the assay is HCV pseudoparticles. Briefly: HCV pseudoparticle infection assay (luciferase reporter, Huh7 cells). It counts as cell-based, HCV (genotype 1b E1 and E2 envelope). Conditions: Hepatitis C virus, genotype 1b, Huh-7, 48 h, HCV pseudoparticles (genotype 1b), luciferase activity 2 days after infection. In general terms: In a reporter assay the amount or activity of a reporter protein is the signal.

As a reminder, the EC50 is the concentration giving half of the maximal effect. Lower therefore signals higher potency in that assay. Where the note is “class”, `CN(C)S(=O)(=O)NC(=O)[C@@]1(NC(=O)CCCNC(=O)c2ccc(Nc3nc(NC4(c5ccc(Cl)cc5)CC4)nc(OCC(F)(F)F)n3)cc2)C[C@H]1C1CC1` [Example 2043] yielded a half-maximal effective concentration (EC50) of 0.5 to 100 nM. Turning to `O=C(CN1CCCC1=O)NCC1(C(=O)NS(=O)(=O)c2ccc(Nc3nc(NC4(c5ccc(Cl)cc5)CC4)nc(OCC(F)(F)F)n3)cc2)CC1` [Example 3008], the EC50 turned out to be 976 nM. Also, under “class”, the EC50 is 100 to 1000 nM. Molecule `O=C(CCCNC(=O)c1ccc(Nc2nc(NC3(c4ccc(Cl)cc4)CC3)nc(OCC(F)(F)F)n2)cc1)NCCC(=O)N[C@]1(C(=O)NS(=O)(=O)C2CC2)C[C@H]1C1CC1` [Example 2064] yielded an EC50 (class) of 0.5 to 100 nM. In turn, `CCC1(S(=O)(=O)NC(=O)c2ccc(Nc3nc(NC4(c5ccc(Cl)cc5)CC4)nc(OCC(F)(F)F)n3)cc2)CC1` [Example 1008] returned an EC50 of 81 nM. This molecule registered an EC50 (class) of 0.5 to 100 nM. As to `COCC1(S(=O)(=O)N(C)C(=O)c2ccc(N(C)c3nc(NC4(c5ccc(Cl)cc5)CC4)nc(OC)n3)cc2)CC1` [Example 8008], the EC50 (class) lay in the range of 1000 to 5000 nM.

As to `CC(C)(C)OC(=O)N1C[C@@H](NC(=O)c2ccc(Nc3nc(NC4(c5ccc(Cl)cc5)CC4)nc(OCC(F)(F)F)n3)cc2)C[C@@H]1C(=O)NC1(C(=O)NS(=O)(=O)C2CC2)CC1` [Example 5002], under “class”, the EC50 fell in the range of 0.5 to 100 nM. `O=C(NS(=O)(=O)CCNCc1ccccc1)c1ccc(Nc2nc(NC3(c4ccc(Cl)cc4)CC3)nc(OCC(F)(F)F)n2)cc1` [Example 1034]: the EC50 (class) lay within 0.5 to 100 nM. On the same count and under the same terms, under `CC(C)(C)OC(=O)N1C[C@@H](NC(=O)c2ccc(Nc3nc(NC4(c5ccc(Cl)cc5)CC4)nc(OCC(F)(F)F)n3)cc2)C[C@@H]1C(=O)NS(=O)(=O)C1CC1` [Example 5000] stands 0.5 to 100 nM. Turning to `C=CS(=O)(=O)NC(=O)CCCNC(=O)c1ccc(Nc2nc(NC3(c4ccc(Cl)cc4)CC3)nc(OCC(F)(F)F)n2)cc1` [Example 2017], the EC50 is 3.2 nM. The concentration for a half-maximal effect (EC50) (class) was in the range of 0.5 to 100 nM.

On to `O=C(NCCS(=O)(=O)NC(=O)C1CC1)c1ccc(Nc2nc(NC3(c4ccc(Cl)cc4)CC3)nc(OCC(F)(F)F)n2)cc1` [Example 4002], for which the half-maximal effective concentration (EC50) (class) lay in the range of 0.5 to 100 nM. For the molecule `CC(C)OC(=O)NCCS(=O)(=O)NC(=O)c1ccc(Nc2nc(NC3(c4ccc(Cl)cc4)CC3)nc(OCC(F)(F)F)n2)cc1` [Example 1045], for the setting “class”, the EC50 lay within 0.5 to 100 nM. The same measure, in the same setting: the value for `CC(F)(F)CC(=O)NS(=O)(=O)CCNC(=O)c1ccc(Nc2nc(NC3(c4ccc(Cl)cc4)CC3)nc(OCC(F)(F)F)n2)cc1` [Example 4003] was 0.5 to 100 nM. Turning to `CC(C)(C)NC(=O)NCCS(=O)(=O)NC(=O)c1ccc(Nc2nc(NC3(c4ccc(Cl)cc4)CC3)nc(OCC(F)(F)F)n2)cc1` [Example 1049], the EC50 (class) lay within 0.5 to 100 nM. Take `C=C[C@@H]1C[C@]1(NC(=O)CCCNC(=O)c1ccc(Nc2nc(NC3(c4ccc(Cl)cc4)CC3)nc(OCC(F)(F)F)n2)cc1)C(=O)NS(=O)(=O)C(C)(C)C` [Example 2035]: the EC50 (class) lay in the range of 0.5 to 100 nM. Still for that read-out and setting: under `CC(C)(C)S(=O)(=O)NC(=O)C1(CNC(=O)c2ccc(Nc3nc(NC4(c5ccc(Cl)cc5)CC4)nc(OCC(F)(F)F)n3)cc2)CC1` [Example 2075] stands 0.5 to 100 nM; under `CN(C)CC1(S(=O)(=O)NC(=O)c2ccc(Nc3nc(OCC(F)(F)F)nc(N4CCN(S(=O)(=O)C5CC5)CC4)n3)cc2)CC1` [Example 8025], 1000 to 5000 nM; under `O=C(NS(=O)(=O)C1(CO)CC1)c1ccc(Nc2nc(NC3(c4ccc(Cl)cc4)CC3)nc(OCC(F)(F)F)n2)cc1` [Example 1025, 4-(4-(1-(4-chlorophenyl)cyclopropylamino)-6-(2,2,2-trifluoroethoxy)-1,3,5-triazin-2-ylamino)-N-(1-(hydroxymethyl)cyclopropylsulfonyl)benzamide], 0.5 to 100 nM.

Molecule `CC(C)(CNC(=O)c1ccc(Nc2nc(NC3(c4ccc(Cl)cc4)CC3)nc(OCC(F)(F)F)n2)cc1)C(=O)NS(=O)(=O)C1CC1` [Example 2084] registered an EC50 of 6 nM. Under “class”, this molecule registered an EC50 of 0.5 to 100 nM. As for `CCN(CC)CC1(S(=O)(=O)NC(=O)c2ccc(Nc3nc(NC4(c5ccc(Cl)cc5)CC4)nc(OCC(F)(F)F)n3)cc2)CC1` [Example 1014], where the note is “class”, the EC50 was in the range of 0.5 to 100 nM.

For `CC(C)(C)OC(=O)NC[C@H](NC(=O)c1ccc(Nc2nc(NC3(c4ccc(Cl)cc4)CC3)nc(OCC(F)(F)F)n2)cc1)C(=O)NS(=O)(=O)C1CC1` [Example 2096], the EC50 (class) lay within 0.5 to 100 nM. Same read-out and setting: under `CC(C)(CNC(=O)c1ccc(Nc2nc(NC3(c4ccc(Cl)cc4)CC3)nc(OCC(F)(F)F)n2)cc1)C(=O)NS(=O)(=O)C(C)(C)C` [Example 2090] stands 0.5 to 100 nM; under `CC(C)(C)CNCCS(=O)(=O)NC(=O)c1ccc(Nc2nc(NC3(c4ccc(Cl)cc4)CC3)nc(OCC(F)(F)F)n2)cc1` [Example 1033], 0.5 to 100 nM. Consider `O=C(CCCNC(=O)c1ccc(Nc2nc(NC3(c4ccc(Cl)cc4)CC3)nc(OCC(F)(F)F)n2)cc1)NCCC(=O)NS(=O)(=O)C1CCC1` [Example 2063], for which the EC50 is 37.9 nM. Further, the EC50 (class) was in the range of 0.5 to 100 nM.

Where the note is “class”, `O=C(NCCS(=O)(=O)NC(=O)c1ccc(Nc2nc(NC3(c4ccc(Cl)cc4)CC3)nc(OCC(F)(F)F)n2)cc1)Nc1cccnc1` [Example 1050] displayed an EC50 of 0.5 to 100 nM.

Under “class”, `C[C@H](NC(=O)CCCNC(=O)c1ccc(Nc2nc(NC3(c4ccc(Cl)cc4)CC3)nc(OCC(F)(F)F)n2)cc1)C(=O)NS(=O)(=O)C1CCC1` [Example 2058] had an EC50 of 0.5 to 100 nM. On the same count and under the same terms, under `O=C(NS(=O)(=O)C1(Cc2ccccc2F)CC1)c1ccc(Nc2nc(NC3(c4ccc(Cl)cc4)CC3)nc(OCC(F)(F)F)n2)cc1` [Example 8016] stands 0.5 to 100 nM; under `O=C(CCCNC(=O)c1ccc(Nc2nc(NC3(c4ccc(Cl)cc4)CC3)nc(OCC(F)(F)F)n2)cc1)N[C@]1(C(=O)NS(=O)(=O)C2CC2)C[C@H]1C1CC1` [Example 2036], 0.5 to 100 nM.

The molecule `CC(C)NC(=O)OCC1(S(=O)(=O)NC(=O)c2ccc(Nc3nc(NC4(c5ccc(Cl)cc5)CC4)nc(OCC(F)(F)F)n3)cc2)CC1` [Example 1027] had a 50% effective concentration (EC50) (class) of 0.5 to 100 nM. Still for that read-out and setting: the value for `CCN(CC)CCS(=O)(=O)NC(=O)c1ccc(Nc2nc(NC3(c4ccc(Cl)cc4)CC3)nc(OCC(F)(F)F)n2)cc1` [Example 1032] was 0.5 to 100 nM. Still for that read-out and setting: under `C=C[C@@H]1C[C@]1(NC(=O)CCCCNC(=O)c1ccc(Nc2nc(NC3(c4ccc(Cl)cc4)CC3)nc(OCC(F)(F)F)n2)cc1)C(=O)NS(=O)(=O)C(C)(C)C` [Example 2027] stands 0.5 to 100 nM; under `Cn1cnc(C[C@H](NC(=O)c2ccc(Nc3nc(NC4(c5ccc(Cl)cc5)CC4)nc(OCC(F)(F)F)n3)cc2)C(=O)N[C@]2(C(=O)NS(=O)(=O)C3CC3)C[C@H]2C2CC2)c1` [Example 8019], 0.5 to 100 nM. `CCS(=O)(=O)NC(=O)C(C)(C)CNC(=O)c1ccc(Nc2nc(NC3(c4ccc(Cl)cc4)CC3)nc(OCC(F)(F)F)n2)cc1` [Example 2087] came in with a concentration giving a half-maximal response (EC50) (class) of 0.5 to 100 nM. Same read-out and setting: under `CN(C)CC1(S(=O)(=O)NC(=O)c2ccc(Nc3nc(OCC(F)(F)F)nc(N4CCN(S(C)(=O)=O)CC4)n3)cc2)CC1` [Example 8022] stands 1000 to 5000 nM; under `Cc1cccc(C(=O)N2CCN(c3nc(Nc4ccc(C(=O)NS(=O)(=O)C5(CN(C)C)CC5)cc4)nc(OCC(F)(F)F)n3)CC2)c1` [Example 8038], 1000 to 5000 nM; under `O=C(NS(=O)(=O)c1ccccc1)c1ccc(Nc2nc(NC3(c4ccc(Cl)cc4)CC3)nc(OCC(F)(F)F)n2)cc1` [Example 8011], 0.5 to 100 nM. Consider `CN(C)CC1(S(=O)(=O)NC(=O)c2ccc(Nc3nc(OCC(F)(F)F)nc(N4CCN(S(=O)(=O)c5ccccc5Cl)CC4)n3)cc2)CC1` [Example 8033], for which the EC50 came to 36100 nM. Further, the EC50 (class) fell in the range of 1000 to 5000 nM. The molecule `CCS(=O)(=O)NC(=O)C1(CNC(=O)c2ccc(Nc3nc(NC4(c5ccc(Cl)cc5)CC4)nc(OCC(F)(F)F)n3)cc2)CC1` [Example 2073] had an EC50 (class) of 0.5 to 100 nM. Same read-out and setting: under `CN(C)CC1(S(=O)(=O)NC(=O)c2ccc(Nc3nc(OCC(F)(F)F)nc(N4CCN(S(=O)(=O)c5ccccc5F)CC4)n3)cc2)CC1` [Example 8030] stands 1000 to 5000 nM; under `O=C(NCC1(C(=O)N[C@]2(C(=O)NS(=O)(=O)C3CC3)C[C@H]2C2CC2)CC1)c1ccc(Nc2nc(NC3(c4ccc(Cl)cc4)CC3)nc(OCC(F)(F)F)n2)cc1` [Example 2066], 0.5 to 100 nM; under `O=C(NS(=O)(=O)C1CC1)c1ccc(Nc2nc(NC3(c4ccc(Cl)cc4)CC3)nc(OCC(F)(F)F)n2)cc1` [Example 1001], 0.5 to 100 nM. The molecule `C=C[C@@H]1C[C@]1(NC(=O)C(C)(C)CNC(=O)c1ccc(Nc2nc(NC3(c4ccc(Cl)cc4)CC3)nc(OCC(F)(F)F)n2)cc1)C(=O)NS(=O)(=O)C1CCC1` [Example 2083] came in with an EC50 (class) of 0.5 to 100 nM. Consider `O=C(NS(=O)(=O)c1ccc(Nc2nc(NC3(c4ccc(Cl)cc4)CC3)nc(OCC(F)(F)F)n2)cc1)C1CC1` [Example 8006], for which a half-maximal effect (EC50) was put at 2990 nM. Besides, under “class”, the half-maximal effective concentration (EC50) is 1000 to 5000 nM. Take `CC(C)(C)OC(=O)N1CCC[C@H]1C(=O)NCCS(=O)(=O)NC(=O)c1ccc(Nc2nc(NC3(c4ccc(Cl)cc4)CC3)nc(OCC(F)(F)F)n2)cc1` [Example 1041]: the EC50 (class) lay in the range of 0.5 to 100 nM.

`CN(C)CCS(=O)(=O)NC(=O)c1ccc(Nc2nc(NC3(c4ccc(Cl)cc4)CC3)nc(OCC(F)(F)F)n2)cc1` [Example 1031] had an EC50 (class) of 0.5 to 100 nM. For the setting “class”, `C=C[C@@H]1C[C@]1(NC(=O)CCCCNC(=O)c1ccc(Nc2nc(NC3(c4ccc(Cl)cc4)CC3)nc(OCC(F)(F)F)n2)cc1)C(=O)NS(=O)(=O)C1CCC1` [Example 2026] had an EC50 of 0.5 to 100 nM. `CN(CC1(S(=O)(=O)NC(=O)c2ccc(Nc3nc(NC4(c5ccc(Cl)cc5)CC4)nc(OCC(F)(F)F)n3)cc2)CC1)C1CC1` [Example 1022] returned an EC50 (class) of 0.5 to 100 nM. Still for that read-out and setting: the value for `O=C(CCCCNC(=O)c1ccc(Nc2nc(NC3(c4ccc(Cl)cc4)CC3)nc(OCC(F)(F)F)n2)cc1)NS(=O)(=O)C1CC1` [Example 2012] was 0.5 to 100 nM. For the molecule `CS(=O)(=O)NC(=O)c1ccc(Nc2nc(NC3(c4ccc(Cl)cc4)CC3)nc(OCC(F)(F)F)n2)cc1` [Example 1002], where the note is “class”, the EC50 was 0.5 to 100 nM.

Regarding `CN(C)CC1(S(=O)(=O)NC(=O)c2ccc(Nc3nc(OCC(F)(F)F)nc(N4CCN(S(=O)(=O)c5ccccc5)CC4)n3)cc2)CC1` [Example 8031], the EC50 (class) was 1000 to 5000 nM.
